Source: patent US20150011751A1, “NOVEL TRIAZINE DERIVATIVE” (CARNA BIOSCIENCES, INC., priority 2012, published 2015)
Structures can show the parent of a compound that is named as a salt.

Biological target: Dephosphorylated BTK (Homo sapiens, UniProt Q06187)
Assay: Test of activity inhibition against dephosphorylated BTK (mobility shift assay)
Experimental: Kinase activity was measured by a mobility shift assay (MSA) method using QuickScout Screening Assist (trademark) MSA (commercially available kit, manufactured by Carna Biosciences, Inc.). FITC-labeled SRCtide peptide supplied with the kit was used as a substrate of a kinase reaction.
IC50 value was calculated by regression analysis of the inhibition ratio and the test compound concentration (logarithm).
Dephosphorylated BTK was obtained by adding a A protein phosphatase (Code No. P0753S, manufactured by New England BioLabs Inc.) and MnCl2 to a biotinylated BTK protein BTN-BTK (manufactured by Carna Biosciences, Inc.) enzyme solution so as to adjust the concentrations to 10 U/μg and 2 mM, respectively, reacting the mixture at 4° C. overnight, removing the A protein phosphatase through anti-[sequence]-tag antibody agarose gel chromatography, and performing buffer exchange using 10DG Desalting Column.

Dephosphorylated BTK, sequence (Q06187 whole entry): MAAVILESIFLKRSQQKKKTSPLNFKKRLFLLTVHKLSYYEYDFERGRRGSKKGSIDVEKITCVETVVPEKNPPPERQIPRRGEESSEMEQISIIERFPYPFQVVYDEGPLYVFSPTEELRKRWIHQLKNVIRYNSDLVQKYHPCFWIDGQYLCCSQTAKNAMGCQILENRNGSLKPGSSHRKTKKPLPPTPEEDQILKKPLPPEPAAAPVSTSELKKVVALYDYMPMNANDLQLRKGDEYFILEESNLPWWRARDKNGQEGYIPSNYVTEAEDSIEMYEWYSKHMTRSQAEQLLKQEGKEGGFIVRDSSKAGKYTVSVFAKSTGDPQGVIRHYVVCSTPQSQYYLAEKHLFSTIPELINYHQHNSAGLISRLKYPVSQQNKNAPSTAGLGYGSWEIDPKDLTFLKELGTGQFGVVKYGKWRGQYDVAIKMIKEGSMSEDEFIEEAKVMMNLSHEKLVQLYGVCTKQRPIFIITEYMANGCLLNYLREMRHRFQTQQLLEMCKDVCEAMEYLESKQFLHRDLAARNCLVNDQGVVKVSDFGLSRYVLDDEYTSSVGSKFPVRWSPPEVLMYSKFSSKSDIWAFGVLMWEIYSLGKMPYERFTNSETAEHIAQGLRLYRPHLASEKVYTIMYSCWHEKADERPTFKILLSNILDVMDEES

Row | SMILES | IC50
1 | Nc1nc(Nc2ccc(OCCN3CCOCC3)cc2)nc(-c2cccc(N3CCc4cc(C5CC5)cc(F)c4C3=O)c2CO)n1 [Example 196, 2-[3-(4-Amino-6-{[4-(2-morpholinoethoxy)phe-nyl]amino}-1,3,5-tri-azin-2-yl)-2-(hydroxy-methyl)phenyl]-6-cyclo-propyl-8-fluoro-3,4-dihydroisoquinolin-1(2H)-one formate] | 3.4 nM
2 | Nc1nc(Nc2ccc(OCCCO)cc2)nc(-c2cccc(N3CCc4cc(C5CC5)cc(F)c4C3=O)c2CO)n1 [Example 197, 2-[3-(4-Amino-6-{[4-(3-hydroxypropoxy)phe-nyl]amino}-1,3,5-tri-azin-2-yl)-2-(hydroxymeth-yl)phenyl]-6-cyclo-propyl-8-fluoro-3,4-di-hydroisoquinolin-1(2H)-one] | 2.4 nM
3 | Nc1nc(Nc2ccc(Cc3nnn[nH]3)cc2)nc(-c2cccc(N3CCc4cc(C5CC5)cc(F)c4C3=O)c2CO)n1 [Example 198, 2-{3-[4-({4-[(1H-Tetra-zol-5-yl)methyl]phe-nyl}amino)-6-amino-1,3,5-triazin-2-yl]-2-(hy-droxymethyl)phenyl}-6-cyclopropyl-8-fluoro-3,4-dihydroisoquinolin-1(2H)-one] | 3.7 nM
4 | CC(C)(C)c1ccc(C(=O)Nc2cccc(-c3nc(N)nc(Nc4ccc(OCCCO)cc4)n3)c2CO)cc1 [Example 200, N-[3-(4-Amino-6-{[4-(3-hydroxypropoxy)phe-nyl]amino}-1,3,5-triazin-2-yl)-2-(hydroxymeth-yl)phenyl]-4-(tert-butyl)benzamide] | 0.8 nM
5 | CC(C)(CO)c1ccc(C(=O)Nc2cccc(-c3nc(N)nc(Nc4ccc(N5CCOCC5)cc4)n3)c2CO)cc1 [Example 201, N-(3-{4-Amino-6-[(4-mor-pholinophenyl)amino]-1,3,5-triazin-2-yl}-2-(hydroxymethyl)phe-nyl)-4-(1-hydroxy-2-meth-ylpropan-2-yl)benz-amide] | 3.4 nM
6 | CC(C)(C)c1ccc(C(=O)Nc2cccc(-c3nc(N)nc(Nc4ccc(-c5nn[nH]n5)cc4)n3)c2CO)cc1 [Example 202, N-[3-(4-{[4-(1H-Tetra-zol-5-yl)phenyl]amino}-6-amino-1,3,5-triaz-in-2-yl)-2-(hydroxy-methyl)phenyl]-4-(tert-butyl)benzamide] | 1.3 nM
7 | CC(C)(C)c1ccc(C(=O)Nc2cccc(-c3nc(N)nc(Nc4ccc(C[C@H]5COC(=O)N5)cc4)n3)c2CO)cc1 [Example 203, N-{3-[4-Amino-6-({4-[(2-oxooxazolidin-4-yl)methyl]phenyl}amino)-1,3,5-triazin-2-yl]-2-(hydroxymethyl)phe-nyl}-4-(tert-butyl) benzamide] | 0.4 nM
8 | CC(C)(C)c1ccc(C(=O)Nc2cccc(-c3nc(N)nc(Nc4ccc(S(=O)(=O)N5CCOCC5)cc4)n3)c2CO)cc1 [Example 204, N-[3-(4-Amino-6-{[4-(morpholinosulfonyl)phe-nyl]amino}-1,3,5-tri-azin-2-yl)-2-(hydroxy-methyl)phenyl]-4-(tert-butyl)benzamide] | 1.3 nM
9 | Cc1cc(Nc2nc(N)nc(-c3cccc(N4CCc5cc(C6CC6)cc(F)c5C4=O)c3CO)n2)n[nH]1 [Example 205, 2-(3-{4-Amino-6-[(5-meth-yl-1H-pyrazol-3-yl)amino]-1,3,5-triazin-2-yl}-2-(hydroxymeth-yl)phenyl)-6-cyclopro-pyl-8-fluoro-3,4-dihy-droisoquinolin-1(2H)-one] | 9.9 nM
10 | CC(C)(C#N)c1cc(F)c2c(c1)CCN(c1cccc(-c3nc(N)nc(Nc4cn[nH]c4)n3)c1CO)C2=O [Example 206, 2-[2-(3-{4-[(1H-Pyrazol-4-yl)amino]-6-amino-1,3,5-triazin-2-yl}-2-(hydroxymethyl)phe-nyl)-8-fluoro-1-oxo-1,2,3,4-tetrahydro-isoquinolin-6-yl]-2-meth-ylpropanenitrile] | 1 nM
11 | CC(C)(O)c1ccc(C(=O)Nc2cccc(-c3nc(N)nc(Nc4ccc(N5CCOCC5)cc4)n3)c2CO)cc1 [Example 208, N-(3-{4-Amino-6-[(4-morpholinophenyl)amino]-1,3,5-triazin-2-yl}-2-(hydroxymethyl)phe-nyl)-4-(2-hydroxy-propan-2-yl)benzamide] | 5.9 nM
12 | CC(C)(F)c1ccc(C(=O)Nc2cccc(-c3nc(N)nc(Nc4ccc(N5CCOCC5)cc4)n3)c2CO)cc1 [Example 209, N-(3-{4-Amino-6-[(4-morpholinophenyl)amino]-1,3,5-triazin-2-yl}-2-(hydroxymethyl)phe-nyl)-4-(2-fluoropropan-2-yl)benzamide] | 1.4 nM
13 | COCCn1cc(Nc2nc(N)nc(-c3cccc(N4CCc5cc(C6CC6)cc(F)c5C4=O)c3CO)n2)cn1 [Example 212, 2-[3-(4-Amino-6-{[1-(2-methoxyethyl)-1H-py-razol-4-yl]amino}-1,3,5-triazin-2-yl)-2-(hy-droxymethyl)phenyl]-6-cyclopropyl-8-fluoro-3,4-dihydroisoquinolin-1(2H)-one] | 0.9 nM
14 | Nc1nc(Nc2cnn(C3CCOCC3)c2)nc(-c2cccc(N3CCc4cc(C5CC5)cc(F)c4C3=O)c2CO)n1 [Example 218, 2-[3-(4-Amino-6-{[1-(tetra-hydro-2H-pyran-4-yl)-1H-pyrazol-4-yl]amino}-1,3,5-triazin-2-yl)-2-(hydroxymethyl)phenyl]-6-cycloprop-yl-8-fluoro-3,4-dihydro-isoquinolin-1(2H)-one] | 0.2 nM
15 | CCOC(=O)c1cc(Nc2nc(N)nc(-c3cccc(N4CCc5cc(C6CC6)cc(F)c5C4=O)c3CO)n2)cn1C [Example 219, Ethyl 4-({4-amino-6-[3-(6-cyclo-propyl-8-fluoro-1-oxo-3,4-dihydroisoquinolin-2(1H)-yl)-2-(hydroxy-methyl)phenyl]-1,3,5-triazin-2-yl}ami-no)-1-methyl-1H-pyrrole-2-carboxylate] | 0.8 nM
16 | CC(=O)N1CCN(c2ccc(Nc3nc(N)nc(-c4cccc(N5CCc6cc(C7CC7)cc(F)c6C5=O)c4CO)n3)cc2)CC1 [Example 220, 2-[3-(4-{[4-(4-Acetyl-piperazin-1-yl)phenyl]amino}-6-amino-1,3,5-triazin-2-yl)-2-(hy-droxymethyl)phenyl]-6-cyclopropyl-8-fluoro-3,4-dihydroisoquinolin-1(2H)-one] | 2.3 nM

Continued, values first:

Row | IC50 | SMILES
17 | 0.4 nM | CC(C)n1cc(Nc2nc(N)nc(-c3cccc(N4CCc5cc(C6CC6)cc(F)c5C4=O)c3CO)n2)cn1 [Example 222, 2-(3-{4-Amino-6-[(1-iso-propyl-1H-pyrazol-4-yl)amino]-1,3,5-tria-zin-2-yl}-2-(hydroxymeth-yl)phenyl)-6-cyclo-propyl-8-fluoro-3,4-di-hydroisoquinolin-1(2H)-one]
18 | 0.6 nM | Nc1nc(Nc2cnn(C3CCNCC3)c2)nc(-c2cccc(N3CCc4cc(C5CC5)cc(F)c4C3=O)c2CO)n1 [Example 223, 2-[3-(4-Amino-6-{[1-(piperidin-4-yl)-1H-py-razol-4-yl]amino}-1,3,5-triazin-2-yl)-2-(hy-droxymethyl)phenyl]-6-cyclopropyl-8-fluoro-3,4-dihydro-isoquinolin-1(2H)-one]
19 | 6.6 nM | Cn1cc(Nc2nc(N)nc(-c3cccc(N4CCc5cc(C6CC6)cc(F)c5C4=O)c3CO)n2)cc1C(=O)O [Example 224, 4-({4-Amino-6-[3-(6-cyclo-propyl-8-fluoro-1-oxo-3,4-dihydroisoquinolin-2(1H)-yl)-2-(hydroxy-methyl)phenyl]-1,3,5-triazin-2-yl}ami-no)-1-methyl-1H-pyr-role-2-carboxylic acid]
20 | 1.2 nM | Nc1nc(Nc2cnn(CCCO)c2)nc(-c2cccc(N3CCc4cc(C5CC5)cc(F)c4C3=O)c2CO)n1 [Example 225, 2-[3-(4-Amino-6-{[1-(3-hydroxypropyl)-1H-py-razol-4-yl]amino}-1,3,5-triazin-2-yl)-2-(hy-droxymethyl)phenyl]-6-cyclopropyl-8-fluoro-3,4-dihydro-isoquinolin-1(2H)-one]
21 | 3.5 nM | Nc1nc(Nc2ccc(N3CCOCC3)cc2)nc(-c2cccc(N3CCc4c(sc5c4CCCC5)C3=O)c2CO)n1 [Example 227, 2-(3-{4-Amino-6-[(4-morpho-linophenyl)amino]-1,3,5-triazin-2-yl}-2-(hydroxymethyl)phe-nyl)-3,4,5,6,7,8-hexa-hydrobenzo[4,5]thieno [2,3-c]pyridin-1(2H)-one]
22 | 2.4 nM | Nc1nc(Nc2ccsc2)nc(-c2cccc(N3CCc4cc(C5CC5)cc(F)c4C3=O)c2CO)n1 [Example 228, 2-{3-[4-Amino-6-(thio-phen-3-ylamino)-1,3,5-triazin-2-yl]-2-(hy-droxymethyl)phenyl}-6-cyclopropyl-8-fluoro-3,4-dihydroisoquinolin-1(2H)-one]
23 | 2.5 nM | CC(C)n1ccc(Nc2nc(N)nc(-c3cccc(N4CCc5cc(C6CC6)cc(F)c5C4=O)c3CO)n2)c1 [Example 229, 2-(3-{4-Amino-6-[(1-iso-propyl-1H-pyrrol-3-yl)amino]-1,3,5-triazin-2-yl}-2-(hydroxymeth-yl)phenyl)-6-cyclopro-pyl-8-fluoro-3,4-di-hydroisoquinolin-1(2H)-one]
24 | 1.7 nM | CCn1ccc(Nc2nc(N)nc(-c3cccc(N4CCc5cc(C6CC6)cc(F)c5C4=O)c3CO)n2)c1 [Example 231, 2-(3-{4-Amino-6-[(1-eth-yl-1H-pyrrol-3-yl)ami-no]-1,3,5-triazin-2-yl}-2-(hydroxymethyl)phenyl)-6-cyclopropyl-8-fluoro-3,4-dihydro-isoquinolin-1(2H)-one]
25 | 0.7 nM | CNC(=O)c1cc(Nc2nc(N)nc(-c3cccc(N4CCc5cc(C6CC6)cc(F)c5C4=O)c3CO)n2)cn1C [Example 232, 4-({4-Amino-6-[3-(6-cyclo-propyl-8-fluoro-1-oxo-3,4-dihydroisoquinolin-2(1H)-yl)-2-(hy-droxymethyl)phenyl]-1,3,5-triazin-2-yl}ami-no)-N,1-dimethyl-1H-pyrrole-2-carboxamide]
26 | 4.2 nM | CS(=O)(=O)n1cc(Nc2nc(N)nc(-c3cccc(N4CCc5cc(C6CC6)cc(F)c5C4=O)c3CO)n2)cn1 [Example 233, 2-[3-(4-Amino-6-{[1-(meth-ylsulfonyl)-1H-py-razol-4-yl]amino}-1,3,- 5-triazin-2-yl)-2-(hy-droxymethyl)phenyl]-6-cyclopropyl-8-fluoro-3,4-dihydroisoquino-lin-1(2H)-one]
